Measurements reported in article PMC4977651, “Molecular features of biguanides required for targeting of mitochondrial respiratory complex I and activation of AMP-kinase” (BMC Biology, 2016).
Where “and” joins values, the source holds several entries; their conditions need not be identical. Equal entries are not always repeated.

Columns and labels:
mouse heart mitochondria = test: ADP-stimulated rotenone-sensitive OCR in isolated mouse heart mitochondria; type: biochemical; design: rotenone sensitive OCR after ADP stimulation, individual replicates / rotenone sensitive OCR after ADP stimulation, average / rotenone sensitive OCR after 15 mins, average: unit not given here; conditions: for rotenone sensitive OCR after ADP stimulation, % of control, average / rotenone sensitive OCR after ADP stimulation, average: average of replicates; for rotenone sensitive OCR after ADP stimulation, % of control, individual replicates: replicate 1-11; for rotenone sensitive OCR after ADP stimulation, individual replicates: replicate 1-12
Protocol: (§1) Complex I and mitochondrial membranes were prepared from Bos taurus (bovine) heart. Intact mitochondria were isolated from rat liver and mouse heart and liver. Membranes were prepared from mouse heart mitochondria by 5 s bursts of sonication at 4 °C and collected by centrifugation (75,000 × g, 1 h).
Isolated mitochondria were monitored using a Seahorse XF96 extracellular flux analyzer at 32 °C. Mouse heart mitochondria, and mouse and rat liver mitochondria were plated into XF96 plates at 4 and 16–20 μg per well, respectively, in 220 mM mannitol, 70 mM sucrose, 10 mM KH2PO4, 5 mM MgCl2, 1 mM EGTA, 0.2 % fatty acid-free BSA, and 2 mM HEPES (pH 7.4 at 37 °C) with 10 mM glutamate and 10 mM malate and adhered by centrifugation (2000 × g, 20 min, 4 °C). The medium was supplemented with a further 5 mM glutamate and 5 mM malate and the mitochondria incubated for 15 min. Then two baseline readings were taken before the biguanides were added at IC50/5. […] Rotenone (2 μM) was added at the end of the experiment. Data from wells with failed port injections were excluded from the analyses. The RCR values (state III versus state IV respiration) were 3.4, 4.8, and 4.6 for mouse heart, rat liver, and mouse liver, respectively.

[1] = molecular target: mouse heart mitochondrial membranes (complex I) (Mus musculus, UniProt P03888+P03899+Q91WD5+Q9DC70); test: NADH:O2 oxidoreduction by mouse heart mitochondrial membranes; type: biochemical; conditions: for HillSlope (best fit value) / IC50 / LogIC50 (best fit value): Prism variable slope fit; for IC50: Bottom 0, Top 100, read-out: IC50 (best fit value); for LogIC50 (best fit value): log of IC50 in mM
Chain of mouse heart mitochondrial membranes (complex I) (P03899 whole entry): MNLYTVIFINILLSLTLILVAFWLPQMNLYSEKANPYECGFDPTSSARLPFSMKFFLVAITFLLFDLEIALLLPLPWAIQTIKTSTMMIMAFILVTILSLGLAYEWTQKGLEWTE
Chain of mouse heart mitochondrial membranes (complex I) (P03888 whole entry): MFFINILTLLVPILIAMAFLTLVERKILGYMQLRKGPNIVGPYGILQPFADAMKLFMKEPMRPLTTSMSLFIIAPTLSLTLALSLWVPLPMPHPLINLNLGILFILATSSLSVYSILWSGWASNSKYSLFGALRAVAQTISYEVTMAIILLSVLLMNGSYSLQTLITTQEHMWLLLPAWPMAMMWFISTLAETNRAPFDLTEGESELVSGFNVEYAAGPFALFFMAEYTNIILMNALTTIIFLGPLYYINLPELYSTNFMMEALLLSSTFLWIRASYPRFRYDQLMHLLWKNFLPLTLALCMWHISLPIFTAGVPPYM
Chain of mouse heart mitochondrial membranes (complex I) (Q9DC70 36-224): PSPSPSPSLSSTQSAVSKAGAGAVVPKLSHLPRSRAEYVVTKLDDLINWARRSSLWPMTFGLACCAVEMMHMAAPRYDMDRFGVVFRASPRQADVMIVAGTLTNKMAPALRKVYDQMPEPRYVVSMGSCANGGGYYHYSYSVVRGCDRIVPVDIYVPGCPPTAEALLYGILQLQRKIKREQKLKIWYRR
Chain of mouse heart mitochondrial membranes (complex I) (Q91WD5 34-463): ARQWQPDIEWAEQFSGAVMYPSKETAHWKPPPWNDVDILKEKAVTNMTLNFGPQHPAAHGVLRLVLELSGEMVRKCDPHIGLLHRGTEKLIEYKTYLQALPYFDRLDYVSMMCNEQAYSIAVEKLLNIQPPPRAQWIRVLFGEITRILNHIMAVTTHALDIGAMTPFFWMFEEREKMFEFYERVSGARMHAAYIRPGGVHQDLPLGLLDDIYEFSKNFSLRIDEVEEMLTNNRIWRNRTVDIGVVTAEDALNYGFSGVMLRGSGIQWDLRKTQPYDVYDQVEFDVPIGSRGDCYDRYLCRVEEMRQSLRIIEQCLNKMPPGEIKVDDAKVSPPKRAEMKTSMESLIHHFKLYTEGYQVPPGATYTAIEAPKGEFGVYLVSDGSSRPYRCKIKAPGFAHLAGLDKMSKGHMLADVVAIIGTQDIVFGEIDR
Protocol: as §1
Assays were performed at 32 °C in a SpectraMax 96-well plate reader. NADH:decylubiquinone oxidoreduction by complex I at 0.5 μg mL^−1 was measured in 20 mM Tris-HCl (pH 7.2), 0.15 % soy bean asolectin (Avanti Polar Lipids), and 0.15 % 3-((3-cholamidopropyl)dimethylammonium)-1-propanesulfonate (CHAPS, Merck Chemicals Ltd), with 200 μM decylubiquinone and 200 μM NADH, and monitored using ε340–380(NADH) = 4.81 mM^−1 cm^−1 [23]. Catalysis was initiated by addition of NADH and maximal rates determined by linear regression. NADH:O2 oxidoreduction by membranes was measured similarly but using 5 μg mL^−1 membranes in 10 mM Tris-HCl (pH 7.4) and 250 mM sucrose using 200 μM NADH and supplemented with 0.15 mM horse heart cytochrome c (Sigma-Aldrich Ltd.). Succinate:O2 oxidoreduction was measured using 40 μg mL^−1 membranes in 5 mM succinate in 10 mM Tris-HCl (pH 7.4) as described previously. Control experiments included NaCl (to match the ionic strength) or DMSO, as appropriate.
Experimental values are reported as mean averages ± standard deviation (SD) of technical replicates for large sample sizes and mean averages ± standard error of the mean (SEM) of technical replicates for small sample sizes. Data were analyzed by the unpaired two-tailed Student’s t test. IC50 values were determined using the standard dose-effect relationship (activity (%) = 100 × IC50 / (IC50 + [inhibitor]^m) with the Hill Slope (m) set to unity for purified complex I) and are reported with 95 % confidence intervals.

mouse liver mitochondria = test: ADP-stimulated rotenone-sensitive OCR in isolated mouse liver mitochondria; type: biochemical; design: rotenone sensitive OCR after ADP stimulation, individual replicates / rotenone sensitive OCR after ADP stimulation, average: unit not given here; conditions: for rotenone sensitive OCR after ADP stimulation, % of control, average / rotenone sensitive OCR after ADP stimulation, average: average of replicates; for rotenone sensitive OCR after ADP stimulation, % of control, individual replicates / rotenone sensitive OCR after ADP stimulation, individual replicates: replicate 1-5
Protocol: as §1
Isolated mitochondria were monitored using a Seahorse XF96 extracellular flux analyzer at 32 °C. Mouse heart mitochondria, and mouse and rat liver mitochondria were plated into XF96 plates at 4 and 16–20 μg per well, respectively, in 220 mM mannitol, 70 mM sucrose, 10 mM KH2PO4, 5 mM MgCl2, 1 mM EGTA, 0.2 % fatty acid-free BSA, and 2 mM HEPES (pH 7.4 at 37 °C) with 10 mM glutamate and 10 mM malate and adhered by centrifugation (2000 × g, 20 min, 4 °C). The medium was supplemented with a further 5 mM glutamate and 5 mM malate and the mitochondria incubated for 15 min. Then two baseline readings were taken before the biguanides were added at IC50/5. Biguanides were allowed to accumulate for 15–20 min before respiration was […] by the addition of 4 mM ADP. Rotenone (2 μM) was added at the end of the experiment. Data from wells with failed port injections were excluded from the analyses. The RCR values (state III versus state IV respiration) were 3.4, 4.8, and 4.6 for mouse heart, rat liver, and mouse liver, respectively.

MDBK cells = test: Rotenone-sensitive oxygen consumption rate in intact MDBK cells; type: cell-based, Bos taurus; design: key to rotenone sensitive OCR after 40 mins of biguanide exposure / rotenone sensitive OCR after 40 mins of biguanide exposure, average: % of OCR recorded immediately before biguanide addition; conditions: biguanide at IC50/10; for rotenone sensitive OCR after 6 hours of biguanide exposure, % control, average / rotenone sensitive OCR after 6 hours of biguanide exposure, average: MDBK cells; for rotenone sensitive OCR after 6 hours of biguanide exposure, average: OCR normalized to OCR immediately prior to biguanide addition; for rotenone sensitive OCR after 40 mins of biguanide exposure, % control, average / rotenone sensitive OCR after 40 mins of biguanide exposure, average / rotenone sensitive OCR after 40 mins of biguanide exposure / rotenone sensitive OCR after 40 mins of biguanide exposure, % control: MDBK intact cells; for rotenone sensitive OCR after 40 mins of biguanide exposure, % control, average / rotenone sensitive OCR after 40 mins of biguanide exposure, average: average of replicates; for rotenone sensitive OCR after 40 mins of biguanide exposure / rotenone sensitive OCR after 40 mins of biguanide exposure, % control: individual replicates
Protocol: 143B (CRL-8303 from ATCC), HepG2 (85011430 from The Health Protection Agency), and MDBK (CCL-22 from ATCC) cells were grown on Dulbecco’s modified Eagle’s medium (DMEM) supplemented with 10 % fetal bovine serum (FBS, Thermo Fisher Scientific) at 37 °C in 5 % CO2. All cells were confirmed as negative for mycoplasma.
Oxygen consumption rates (OCRs) were measured using a Seahorse XF96 extracellular flux analyzer at 37 °C. For intact cell measurements, 1.4 × 10^4 143B, HepG2, or MDBK cells were plated (per well) in DMEM containing 10 % FBS into Seahorse Bioscience Inc. XF96 plates and incubated for ~12 h at 37 °C in 5 % CO2. Then, the medium was exchanged for assay buffer containing DMEM, 4.5 g L^−1 glucose, 1 mM pyruvate, 32 mM NaCl, 2 mM GlutaMAX, 15 mg L^−1 phenol red, and 20 mM HEPES (pH 7.4 at 37 °C) and the cells placed in a CO2-free incubator at 37 °C for 30 min. Basal oxygen consumption rates were established before the addition of biguanides at one-tenth of their IC50 (IC50/10), and followed for ~ 6 h before the addition of rotenone (2 μM).
Rotenone-sensitive OCRs were calculated by subtracting the rotenone-insensitive rates (determined at the end of the experiment). OCRs were normalized by dividing by the OCR recorded immediately prior to the addition of biguanide. For rate of uptake calculations, the OCRs at time points after biguanide addition were divided by the OCRs at the same time points in control experiments. Data from wells with failed port injections were excluded from the analyses. The respiratory control ratio (RCR) values (state III versus state IV respiration) were ~11 and ~6 for permeabilized MDBK and 143B cells, respectively.

CC(C)N=C(N)N=C(N)N [compound 4, 1-(diaminomethylidene)-2-(propan-2-yl)guanidine]
rotenone sensitive OCR after ADP stimulation, % of control, average (mouse heart mitochondria): 23.15 % of control | rotenone sensitive OCR after ADP stimulation, average (mouse heart mitochondria): 56.07 | rotenone sensitive OCR after ADP stimulation, % of control, individual replicates (mouse heart mitochondria): 28.98 % of control and 23.60 % of control and 23.95 % of control and 23.54 % of control and 25.71 % of control and 23.25 % of control and 16.50 % of control and 19.68 % of control | rotenone sensitive OCR after ADP stimulation, individual replicates (mouse heart mitochondria): 70.20 and 57.15 and 58.01 and 57.01 and 62.27 and 56.30 and 39.95 and 47.67 | HillSlope (best fit value) [1]: -1.082 | IC50 [1]: 30.1 mM | remaining activity at 620 µM ([1]; inhibitor 0.62 mM, read-out: average % (rate, % of no-inhibitor control)): 103% | remaining activity at 1320 µM ([1]; inhibitor 1.32 mM, read-out: average % (rate, % of no-inhibitor control)): 99.1% | remaining activity at 3120 µM ([1]; inhibitor 3.12 mM, read-out: average % (rate, % of no-inhibitor control)): 93.2% | remaining activity at 6250 µM ([1]; inhibitor 6.25 mM, read-out: average % (rate, % of no-inhibitor control)): 80.8% | remaining activity at 15600 µM ([1]; inhibitor 15.60 mM, read-out: average % (rate, % of no-inhibitor control)): 67.2% | remaining activity at 62500 µM ([1]; inhibitor 62.50 mM, read-out: average % (rate, % of no-inhibitor control)): 30.7% | LogIC50 (best fit value) [1]: 1.478 | rotenone sensitive OCR after ADP stimulation, % of control, average (mouse liver mitochondria): 19.19 % of control | rotenone sensitive OCR after ADP stimulation, average (mouse liver mitochondria): 6.66 | rotenone sensitive OCR after ADP stimulation, % of control, individual replicates (mouse liver mitochondria): 21.16 % of control and 18.53 % of control and 17.88 % of control | rotenone sensitive OCR after ADP stimulation, individual replicates (mouse liver mitochondria): 7.34 and 6.43 and 6.20 | rotenone sensitive OCR after 6 hours of biguanide exposure, % control, average (MDBK cells): 18.29 % control | rotenone sensitive OCR after 6 hours of biguanide exposure, average (MDBK cells): 18.34 | rotenone sensitive OCR after 40 mins of biguanide exposure, % control, average (MDBK cells): 93.72 % control | rotenone sensitive OCR after 40 mins of biguanide exposure, average (MDBK cells): 95.36 | rotenone sensitive OCR after 40 mins of biguanide exposure (MDBK cells): 95.78 and 95.98 and 96.95 and 94.61 and 94.86 and 94.00 | rotenone sensitive OCR after 40 mins of biguanide exposure, % control (MDBK cells): 94.13 % control and 94.32 % control and 95.28 % control and 92.98 % control and 93.22 % control and 92.38 % control

CC(C)N=C(N)N=C(N)NC(C)C [compound 5, N-(propan-2-yl)-1-3-(propan-2-yl)carbamimidamidomethanimidamide]
rotenone sensitive OCR after ADP stimulation, % of control, average (mouse heart mitochondria): 111.59 % of control | rotenone sensitive OCR after ADP stimulation, average (mouse heart mitochondria): 270.26 | rotenone sensitive OCR after ADP stimulation, % of control, individual replicates (mouse heart mitochondria): 121.74 % of control and 137.11 % of control and 79.19 % of control and 109.33 % of control and 124.83 % of control and 108.07 % of control and 108.05 % of control and 104.41 % of control | rotenone sensitive OCR after ADP stimulation, individual replicates (mouse heart mitochondria): 294.85 and 332.07 and 191.79 and 264.79 and 302.34 and 261.73 and 261.69 and 252.86 | HillSlope (best fit value) [1]: -1.037 | IC50 [1]: 0.292 mM | LogIC50 (best fit value) [1]: -0.5351 | rotenone sensitive OCR after ADP stimulation, % of control, average (mouse liver mitochondria): 82.72 % of control | rotenone sensitive OCR after ADP stimulation, average (mouse liver mitochondria): 28.70 | rotenone sensitive OCR after ADP stimulation, % of control, individual replicates (mouse liver mitochondria): 96.11 % of control and 71.97 % of control and 77.63 % of control and 85.15 % of control | rotenone sensitive OCR after ADP stimulation, individual replicates (mouse liver mitochondria): 33.35 and 24.97 and 26.94 and 29.54 | rotenone sensitive OCR after 6 hours of biguanide exposure, % control, average (MDBK cells): 95.30 % control | rotenone sensitive OCR after 6 hours of biguanide exposure, average (MDBK cells): 95.59 | rotenone sensitive OCR after 40 mins of biguanide exposure, % control, average (MDBK cells): 97.92 % control | rotenone sensitive OCR after 40 mins of biguanide exposure, average (MDBK cells): 99.64 | rotenone sensitive OCR after 40 mins of biguanide exposure (MDBK cells): 98.03 and 101.32 and 101.34 and 98.05 and 98.68 and 101.35 and 98.70 | rotenone sensitive OCR after 40 mins of biguanide exposure, % control (MDBK cells): 96.34 % control and 99.57 % control and 99.60 % control and 96.36 % control and 96.98 % control and 99.61 % control and 97.00 % control
